Consider three compounds from US20160256398A1 (H. Lundbeck A/S, priority 2009, published 2016).

The conditions of series [1]: depressed patients; cited from earlier work.
Series [2] can be described thus: 5-way crossover study in healthy volunteers: adverse events by administration form. It counts as in vivo, human. The source says: (§1) 23 subject (12 men and 11 women) participated in the trial; due to drop-outs however, not all 23 subjects received all five treatments—see below for details.
The proximal small bowel is approximately the first meter of the jejunum, and the distal small bowel is approximately the last meter of the ileum, including terminal ileum up to the ileo-caecal junction.
The Enterion™ capsule allows targeted delivery of an active substance into any region of the GI tract. The capsule contains a drug reservoir and a separate compartment for a radioactive tracer. The floor of the reservoir acts a piston which is held back against a spring by a polymer filament. By means of gamma scintigraphy (an imaging technique) the exact position of the capsule in the GI tract can be determined real-time. When the capsule has reached its desired position in the GI tract, a magnetic field is applied which causes an antenna in the capsule all to heat up. The heated antenna is in contact with the polymer filament which softens and eventually breaks which sets the piston (reservoir floor) free and rapidly releases the drug. The Enterion™ capsule is available from Partner Tech, UK.
(§2) Blood samples were obtained at regular intervals 240 hours post-dosing of the IR tablet, post-start of the infusion and post-activation of the Enterion™ capsule. […] Additionally, adverse events were recorded. Food (soup) was provided 4 hours post-dose and dinner 10 hours post-dose.
All 23 subjects received treatments A and B; 22 subjects received treatment C; 20 subjects received treatment D; and 19 received treatment E.
The table below summarises the adverse events recorded during the course of the trial.

For series [3] the following is noted: cited from earlier work.
The nature of series [4]: 5-way crossover study in healthy volunteers: plasma concentration-time profile. It counts as in vivo, human. How it is done: as §1, §2
The plasma concentration time profiles are depicted in FIG. 1.

The test system of series [5] is acetylcholine, norepinephrine, dopamine, and serotonin in brain regions associated with mood regulation. The following applies: extracellular levels in rat brains; cited from earlier work.
Where [6] appears, read: Regimen B: 20 mg, single oral dose, two 10 mg IR tablets, 23 subjects.
The mark [7] stands for this setting: Regimen C: 9 mg iv infusion over 6 hours, 22 subjects.
The mark [8] stands for this setting: Regimen D: 20 mg solution via Enterion capsule to proximal small bowel, 20 subjects.
The mark [9] stands for this setting: Regimen E: 20 mg solution via Enterion capsule to distal small bowel, 19 subjects.

Molecules are shown by their SMILES. Entries after “also recorded” stand apart in the source; their conditions may differ.

Consider `Fc1ccc([C@@H]2CCNC[C@H]2COc2ccc3c(c2)OCO3)cc1` [paroxetine], for which, in series [1], the “nausea with enteric coated, sustained release tablet compared with IR tablet” value is “less nausea”; the “other GI related adverse events such as diarrhea, abnormal ejaculation, female genital disorders and dizziness with enteric coated tablet compared with IR tablet” value is given as “appeared to increase”.

Take `Br.Cc1ccc(Sc2ccccc2N2CCNCC2)c(C)c1` [Compound I HBr, 1-[2-(2,4-dimethyl-phenylsulfanyl)-phenyl]piperazine hydrobromide]: in series [2] (setting [6]), the Abdominal pain is 2 no of subjects, the Fatigue was 2 no of subjects, the Headache is 3 no of subjects and the “Lightheadedness/postural dizziness (no BP drop)” value was 5 no of subjects. Moreover, in series [2] (setting [6]), the Nausea is reported as 9 no of subjects, the Retching is recorded as 1 no of subjects and the Vomiting is 2 no of subjects. In addition, in series [2] (setting [7]), the “Abnormal liver function tests” value is 1 no of subjects, the Headache is reported as 2 no of subjects, the Nausea was 1 no of subjects and the Postural hypotension is 2 no of subjects. In series [2] (setting [8]), the Abdominal pain was 1 no of subjects, the Headache is 1 no of subjects, the “Lightheadedness/postural dizziness (no BP drop)” value is 1 no of subjects and the Nausea was 3 no of subjects. Besides, in series [2] (setting [8]), the Postural hypotension is 1 no of subjects, the Pruritis was 1 no of subjects and the Vomiting is given as 1 no of subjects. Besides, in series [2] (setting [9]), the Abdominal pain was 1 no of subjects, the Nausea was 2 no of subjects, the Postural hypotension was 3 no of subjects and the Rash is 1 no of subjects.

`Cc1ccc(Sc2ccccc2N2CCNCC2)c(C)c1` [Compound I, 1-[2-(2,4-dimethyl-phenylsulfanyl)-phenyl]piperazine]: the “sleep and sexually related adverse events in depressed patients” value in series [3] (clinical trials disclosed in WO 2008/113359) is reported as “surprisingly low level”. Besides, in series [3] (dosed at 5 and 10 mg), the “efficacy in the treatment of major depressive disorder” value is given as “efficacious”; the “safety and tolerability in first clinical trial” value is “safe and well-tolerated”. For the same compound, the “plasma concentration-time profile, dependence on administration form” value in series [4] (IR tablet versus release in the small intestine (FIG. 1, regimens B, D, E)) was “virtually independent on whether Compound I is administered in an IR tablet or released in the small intestine”. The “characteristics of plasma concentration-time profile” value in series [4] (administration in an IR composition) was “relative late tmax and a plasma concentration plateau around tmax”. Further, the “levels of acetylcholine, norepinephrine (noradrenaline), dopamine and serotonin in brain” value in series [5] was “increase; also recorded: significant increases”. Besides, the “overall number of adverse events” value in series [2] (regimen B, IR tablet) is given as “most adverse events”. Moreover, the “overall number of adverse events” value in series [2] (regimen C, D and E: i.v. infusion, released in the proximal or distal small bowel) is listed as “markedly lower number of adverse events”.
